Common to all, as to type: cell-based, human
In assay [1] the test system is GM-CSF release. Nature of the assay: LPS-induced GM-CSF release in isolated peripheral blood neutrophils (LUMINEX). The note with it: LPS (1 μg/ml), 6 h. On the procedure: Neutrophils and monocytes were isolated from peripheral venous blood by standard laboratory procedures. In brief, peripheral venous blood was mixed with dextran 500 at 3% (in 0.9% saline) in a proportion of 2:1. This mixture was incubated at room temperature for 30 min until erythrocytes were sedimented. […] The two phases generated were centrifuged at 150 g, 4° C. for 30 min. Thus, the interface was collected to isolate monocytes, and the pellet obtained (which is consisted a mixture of neutrophils and low proportion of residual erythrocytes and traces of eosinophils and basophils) was resuspended in an erythrocyte lysis buffer (Biolegend, UK) for 5 min in ice. Cell suspension was washed two times with phosphate buffer (PBS).
(§1) Peripheral neutrophil cell suspension was adjusted to 500×10^3 cells per well in 24-well plates and incubated in RPMI culture medium for 1 h into the incubator at 37° C., 5% CO2. […] Both the stimulus and drug were remained together for 6 h. Supernatants were collected and centrifuged at 120 g for 5 min, and the free-cell supernatant was used to measure IL-8, MMP-9, IL-1β, GM-CSF and CCL-5.
(§2) IL-8 was determined by using commercially available enzyme-linked immunosorbent assay kit for IL-8 (R&D Systems, UK) according to the manufacturer's protocol. MMP-9, IL-1β, GM-CSF and CCL-5 were measured by LUMINEX technology according to the manufacturer's protocol.
(§3) Data were presented as mean±SEM. IC50 values were calculated for each drug and their combinations. Statistical analysis of results was carried out by analysis of variance (ANOVA) followed by Bonferroni test, by Student's t test, or by non-parametric tests as appropriate (GraphPad Software Inc, San Diego, Calif., USA). Significance was accepted when P<0.05. For clinical correlations of lung function and gene expression from neutrophils the non-parametric Spearman correlation analysis was carried out.

For assay [2], the system named is GCβ. The experiment in a line: Real time RT-PCR of GCβ mRNA in CSE-stimulated neutrophils from COPD patients. The note with it: RNO 1 nM and 1 μM, DEX 1 μM, RNO 1 nM plus DEX 1 μM, NAC 1 mM, CSE 5%. On the procedure:
(§4) Neutrophils and monocytes were isolated from peripheral venous blood by standard laboratory procedures. In brief, peripheral venous blood was mixed with dextran 500 at 3% (in 0.9% saline) in a proportion of 2:1. This mixture was incubated at room temperature for 30 min until erythrocytes were sedimented. The upper phase was carefully collected and added on Ficoll-Paque Histopaque 1077 (Amershan Pharmacia Biotech, Barcelona, Spain) density gradient in a proportion of 3:1. The two phases generated were centrifuged at 150 g, 4° C. for 30 min. […]
(§5) CSE was prepared as previously outlined (Milara et al.; Ortiz et al.). […] The quality of the prepared CSE solution was assessed based on the absorbance at 320 nm, which is the specific absorption wavelength of peroxynitrite. Stock solutions with an absorbance value of 3.0±0.1 were used. […]
(§6) Total RNA was obtained from isolated neutrophils under basal conditions or after different drug and stimulation periods defined above by using TriPure® Isolation Reagent (Roche, Indianapolis, USA). […] Relative quantification of these transcripts was determined with the 2^−ΔΔCt method using glyceraldehyde phosphate dehydrogenase (GAPDH) as endogenous control (Applied Biosystems; 4352339E) and normalized to control group as previously described (Milara et al., 2009).
(§7) Then, mRNA was isolated and quantified for different genes.

Assay [3] concerns HDAC2. Nature of the assay: Real time RT-PCR of HDAC2 expression in CSE-stimulated neutrophils from COPD patients. The note with it: RNO 1 nM and 1 μM, DEX 1 μM, RNO 1 nM plus DEX 1 μM, NAC 1 mM, CSE 5%. The procedure:
as §4, §5, §6, §7
Background: Real-time PCR tracks product formation cycle by cycle.

The subject of assay [4] is MIF. The experiment in a line: Real time RT-PCR of MIF mRNA in CSE-stimulated neutrophils from COPD patients. The note with it: RNO 1 nM and 1 μM, DEX 1 μM, RNO 1 nM plus DEX 1 μM, NAC 1 mM for 1 h, then CSE 5% 6 h. The procedure:
as §4, §5, §6, §7

Assay [5] relates to IL-1β release. The experiment in a line: LPS-induced IL-1β release in isolated peripheral blood neutrophils (LUMINEX). The note with it: LPS (1 μg/ml), 6 h. On the procedure: Neutrophils and monocytes were isolated from peripheral venous blood by standard laboratory procedures. In brief, peripheral venous blood was mixed with dextran 500 at 3% (in 0.9% saline) in a proportion of 2:1. This mixture was incubated at room temperature for 30 min until erythrocytes were sedimented. The upper phase was carefully collected and added on Ficoll-Paque Histopaque 1077 (Amershan Pharmacia Biotech, Barcelona, Spain) density gradient in a proportion of 3:1. The two phases generated were centrifuged at 150 g, 4° C. for 30 min. Thus, the interface was collected to isolate monocytes, and the pellet obtained (which is consisted a mixture of neutrophils and low proportion of residual erythrocytes and traces of eosinophils and basophils) was resuspended in an erythrocyte lysis buffer (Biolegend, UK) for 5 min in ice. Cell suspension was washed two times with phosphate buffer (PBS).
as §1, §2, §3

Assay [6] relates to MKP1. Nature of the assay: Real time RT-PCR of MKP1 mRNA in CSE-stimulated neutrophils from COPD patients. The note with it: RNO 1 nM and 1 μM, DEX 1 μM, RNO 1 nM plus DEX 1 μM, NAC 1 mM for 1 h, then CSE 5% 6 h. On the procedure:
as §4, §5, §6, §7

`O=C(Nc1c(Cl)c[n+]([O-])cc1Cl)c1ccc(OC(F)F)c(OCC2CC2)c1` [RNO, roflumilast N-oxide]: in assay [1] (neutrophils from COPD patients), the “-log IC50, inhibition of GM-CSF release” value was 8.10 ± 0.22 and the “Maximal % Inhibition of GM-CSF release” value was 86.6 ± 8.04%. In assay [1] (neutrophils from HEALTHY), the “-log IC50, inhibition of GM-CSF release” value was 8.25 ± 0.21 and the “Maximal % Inhibition of GM-CSF release” value came to 78.87 ± 6.57%. Also, in assay [2], the “effect on CSE-induced GCβ upregulation” value was “inhibited”. Moreover, in assay [3], the “effect on CSE-induced HDAC2 downregulation” value is recorded as “inhibited”. For the same compound, the “effect on CSE-induced increase of MIF mRNA expression” value in assay [4] is “reversed the effect of CSE”. For the same compound, in assay [5] (neutrophils from COPD patients), the “-log IC50, inhibition of IL-1β release” value is recorded as 7.82 ± 0.21 and the “Maximal % Inhibition of IL-1β release” value is reported as 66.69 ± 6.86%. In assay [5] (neutrophils from HEALTHY), the “-log IC50, inhibition of IL-1β release” value was 7.73 ± 0.22 and the “Maximal % Inhibition of IL-1β release” value was 67.08 ± 6.63%. Besides, the “effect on CSE-induced down-regulation of MKP1 mRNA expression” value in assay [6] was “reversed the effect of CSE”.

The values above are taken from patent US20150164916A1, “ROFLUMILAST COMPOSITIONS FOR THE TREATMENT OF COPD” (Forest Laboratories Holdings Ltd., priority 2012, published 2015).
